# Test results as given in ChEMBL document CHEMBL1140882, “Pestalofones A-E, bioactive cyclohexanone derivatives from the plant endophytic fungus Pestalotiopsis fici” (Bioorg Med Chem, 2009).
# Counter-ions that a name gives are not always drawn.
# Tested on: not listed separately
# Test: Cytotoxicity against human C8166 cells after 4 days by MTT assay
# Assay type: cell-based
# Settings: not given
row,Structure (SMILES),CC50 at 96 h [µM]
1,CC(C)=C/C=C1\C[C@H](O)[C@@H]2O[C@]2(CC=C(C)C)C1=O [PESTALOFONE A],> 200
2,C=C(C)/C=C1/C(=C2\C[C@H](O)[C@@H]3O[C@]3(CC=C(C)C)[C@@H]2O)C=C(C)C[C@@]12C[C@H](O)[C@@H]1O[C@]1(CC=C(C)C)C2=O [PESTALOFONE B],> 200
3,COC(=O)c1cc(OC)cc2oc3c(CC(=O)[C@@]4(O)C[C@H](O)[C@@H]5O[C@]5(CC=C(C)C)[C@@H]4O)c(C)c(CC(C)=O)c(O)c3c(=O)c12 [PESTALOFONE E],> 200

# Tested on: Aspergillus fumigatus
# Test: Antimicrobial activity against Aspergillus fumigatus ATCC 10894
# Assay type: functional, organism-based
# Settings: not given
Structure (SMILES),IC50 [µM],MIC [µM]
OC(Cn1cncn1)(Cn1cncn1)c1ccc(F)cc1F [FLUCONAZOLE],7.35,163
C=C(C)/C=C1/C(=C2\C[C@H](O)[C@@H]3O[C@]3(CC=C(C)C)C2=O)C=C(C)C[C@@]12C[C@H](O)[C@@H]1O[C@]1(CC=C(C)C)C2=O [PESTALOFONE C],1.1,35.3
COC(=O)c1cc(OC)cc2oc3c(CC(=O)[C@@]4(O)C[C@H](O)[C@@H]5O[C@]5(CC=C(C)C)[C@@H]4O)c(C)c(CC(C)=O)c(O)c3c(=O)c12 [PESTALOFONE E],0.9,31.2

# Tested on: Human immunodeficiency virus 1
# Test: Antiviral activity against HIV1 replication in human C8166 cells by ELISA
# Assay type: functional, organism-based
# Settings: Human immunodeficiency virus 1, C8166
row,Structure (SMILES),EC50 [µM]
1,CC(C)(C)NC(=O)[C@@H]1CN(Cc2cccnc2)CCN1C[C@@H](O)C[C@@H](Cc1ccccc1)C(=O)N[C@H]1c2ccccc2C[C@H]1O [INDINAVIR SULFATE],0.00881
2,CC(C)=C/C=C1\C[C@H](O)[C@@H]2O[C@]2(CC=C(C)C)C1=O [PESTALOFONE A],90.4
3,C=C(C)/C=C1/C(=C2\C[C@H](O)[C@@H]3O[C@]3(CC=C(C)C)[C@@H]2O)C=C(C)C[C@@]12C[C@H](O)[C@@H]1O[C@]1(CC=C(C)C)C2=O [PESTALOFONE B],64
4,COC(=O)c1cc(OC)cc2oc3c(CC(=O)[C@@]4(O)C[C@H](O)[C@@H]5O[C@]5(CC=C(C)C)[C@@H]4O)c(C)c(CC(C)=O)c(O)c3c(=O)c12 [PESTALOFONE E],93.7
